Drawing on ChEMBL document CHEMBL1136998, “Bis-neonicotinoid insecticides: Observed and predicted binding interactions with the nicotinic receptor” (Bioorg Med Chem Lett, 2009), this text covers Ki for 11 compounds.

Assay [1] is described as follows: Displacement of [3H]IMI from Drosophila melanogaster brain nAChR. (Displacement assays read how much labelled ligand stays bound in the presence of the test substance.)
Assay [2] in a line: Displacement of [3H]IMI from house fly nAChR. The arrangement: species or system Musca domestica.

Usually Ki stands for a measure of affinity in units of concentration, obtained from inhibition or displacement. A high value points to a looser hold on the target. As to `O=[N+]([O-])/N=C1/N(CCCCCCCCN2CCN(Cc3ccc(Cl)nc3)/C2=N\[N+](=O)[O-])CCN1Cc1ccc(Cl)nc1`, the Ki in assay [1] was 0.88 µM.

Take `O=[N+]([O-])/N=C1/N(Cc2ccc(CN3CCN(Cc4ccc(Cl)nc4)/C3=N\[N+](=O)[O-])cc2)CCN1Cc1ccc(Cl)nc1`: the Ki in assay [1] was determined as 1.18 µM.

The compound `O=[N+]([O-])/N=C1/N(CCCCCCCN2CCN(Cc3ccc(Cl)nc3)/C2=N\[N+](=O)[O-])CCN1Cc1ccc(Cl)nc1` came in with a Ki in assay [1] of 0.14 µM.

As to `O=[N+]([O-])/N=C1/N(CCCCCCCCCN2CCN(Cc3ccc(Cl)nc3)/C2=N\[N+](=O)[O-])CCN1Cc1ccc(Cl)nc1`, in assay [1], the Ki is 1.38 µM.

`O=[N+]([O-])/N=C1/N(CCCCCCCCCCN2CCN(Cc3ccc(Cl)nc3)/C2=N\[N+](=O)[O-])CCN1Cc1ccc(Cl)nc1` yielded a Ki in assay [2] of 110 µM.

As to `O=[N+]([O-])/N=C1\N(Cc2ccc(Cl)nc2)CCN1CN1CCN(Cc2ccc(Cl)nc2)/C1=N\[N+](=O)[O-]`, in assay [2], affinity was put at a Ki of 27 µM.

In turn, `O=[N+]([O-])/N=C1/N(CCCCCN2CCN(Cc3ccc(Cl)nc3)/C2=N\[N+](=O)[O-])CCN1Cc1ccc(Cl)nc1` displayed a Ki in assay [1] of 5.35 µM.

With `O=[N+]([O-])/N=C1/N(CC/C=C\CCN2CCN(Cc3ccc(Cl)nc3)/C2=N\[N+](=O)[O-])CCN1Cc1ccc(Cl)nc1`, the Ki in assay [1] turned out to be 0.78 µM.

Take `O=[N+]([O-])/N=C1/N(C/C=C/C=C/CN2CCN(Cc3ccc(Cl)nc3)/C2=N\[N+](=O)[O-])CCN1Cc1ccc(Cl)nc1`: the Ki in assay [1] worked out at 0.97 µM.

`O=[N+]([O-])/N=C1/N(CC/C=C/CCN2CCN(Cc3ccc(Cl)nc3)/C2=N\[N+](=O)[O-])CCN1Cc1ccc(Cl)nc1` returned an inhibition constant (Ki) in assay [1] of 2.49 µM.

For `O=[N+]([O-])/N=C1/N(CCCCCCN2CCN(Cc3ccc(Cl)nc3)/C2=N\[N+](=O)[O-])CCN1Cc1ccc(Cl)nc1`, in assay [1], the affinity, expressed as Ki, was 0.68 µM.
